Legend:
MG6 cells = test: M1 shift of microglial cells by LPS (FACS); format: cell-based, mouse; settings: MHP1 100 μg/ml, LPS 2 ng/ml, 24 hours; FIG. 8
Description: MG6 cells (mouse-derived microglial cell line) were cultured in a DMEM medium (+4% FBS) containing MHP1 (final concentration: 100 μg/ml) or RANKL protein (Recombinant Murin sRANKL Ligand (Cat No. 315-11): produced by Peprotech) (final concentration: 10 ng/ml), and LPS (final concentration: 2 ng/ml) for 24 hours by a standard method. After culture, the cells were washed with PBS, and Fc receptor blocking was performed using mouse IgG. Thereafter, F4/80-FITC (microglia marker antibody) and CD206-APC (M2 marker antibody) were added, and reacted at 4° C. for 30 minutes in a dark place. After the reaction, the cells were washed with PBS, and the percentage of microglia marker-positive and M2 marker-positive (M2 state) cells, and the percentage of microglia marker-positive and M2 marker-negative (M1 state) cells were measured by FACS analysis (FACSCanto II, produced by BD Biosciences).

NFκB (p65) = NFκB (p65) activation (TransAM NFkB p65 Kit); format: cell-based, mouse; settings: RAW264.7 cells; MHP1 100 μg/ml, 10 minutes; FIG. 12C
Description: It has recently been reported that the administration of RANKL protein to mice induces the activation of osteoclasts. Accordingly, the influence of the RANKL peptide on osteoclasts was examined. The specific examination procedures were as follows. MHP1 (final concentration: 100 μg/ml) or RANKL protein (final concentration: 10 ng/ml) was added to a medium (DMEM medium (+4% FBS)) in which RAW264.7 cells were cultured, and the cells were collected after 10 minutes and 3 days.
For the samples collected after 10 minutes, nuclear proteins of the cells were extracted using the Nuclear Extract Kit (Active Motif), and the degree of NFκB (p65) activation was measured by the TransAM NFkB p65 Kit (Active Motif). On the other hand, for the samples collected after 3 days, the mRNA expression levels of NFATc1 and ACP5 were analyzed by real-time RT-PCR.

[1] = system: neuron-glia mixed culture; test: TNFα secretion by LPS in neuron-glia mixed culture system; format: cell-based, mouse
Description: Neuronal tissue (a mixture of neurons and glial cells) was removed from a mouse fetus 21 days after fertilization (21st fetal day), and cultured in Neurobasal medium (+B-27, +5% HS) for 9 days. Then, the cells were divided into 3 groups (A to C groups), and subjected to the following treatments.
The cells were cultured for 24 hours after the medium was changed to a medium (Neurobasal A/N2 supplement) containing MHP1 (final concentration: 1, 10, 30, or 50 μg/ml). Then, LPS (final concentration: 10 μg/ml) was added to the medium, and the cells were further cultured for 24 hours. After culture, the concentration of TNFα in the medium was measured by the ELISA method.
The cells were cultured for 24 hours after the medium was changed to a medium (Neurobasal A/N2 supplement) containing MHP1 (final concentration: 30 or 50 μg/ml) and LPS (final concentration: 10 μg/ml). After culture, the concentration of TNFα in the medium was measured by the ELISA method.

[2] = system: cerebral ischemia mice (C57BL6/J); test: Necrosis after cerebral ischemia, intraventricular administration; format: in vivo, mouse
Description: A cerebral ischemic area was artificially developed in wild-type mice (C57BL6/J) using embolic suture. Specifically, nylon suture was inserted from the right external carotid artery into the intracranial internal carotid artery, and the right middle cerebral artery was temporarily occluded. The embolic suture was removed 40 minutes after the formation of the ischemic area, and the blood was reperfused. Four hours after the formation of the ischemic area, 2 μl of MHP1 solution (0.625 μg/2 μl, the solvent was artificial cerebrospinal fluid (aCSF)) or 2 μl of aCSF was administered by injection into the ventricle of the mice with a neurological severe score of 1 or 2. Separately, a group to which edaravone, which is a known brain-protecting agent, was administered was also produced (aCSF intraventricular administration+3 mg/kg of edaravone i.p., administered every 12 hours). The brain was removed 72 hours after the formation of the ischemic area, and a brain slice including left and right brain portions in positions of 1.4, 0.7, and 0 mm in the front and rear of the bregma was produced. The slice was stained with cresyl violet. The area of the […] was regarded as the cerebral infarct area (necrosis site), and the ratio of cerebral infarct area was determined by the following formula. […] Ratio of cerebral infarct area=([normal side brain area]−([cerebral infarct side total area]−[cerebral infarct area])/normal side brain area)×100
Furthermore, the ratio of F4/80-positive cells (activated macrophage/microglia) in the cerebral infarction hemisphere in a position of 0.7 mm from the bregma (/middle cerebral artery region), and the number of the cells were measured.

[3] = system: cerebral infarction model mice; test: Osteoclasts after cerebral infarction in vivo (TRAP staining of radius); set-up: species or system mouse; settings: 300 μG i.v. then 336 μg s.c.; radius distal portion, paralyzed side, 48 hours; FIG. 24
Description: Cerebral infarction models were produced in the same manner as in Example 10. Four hours after the production of the cerebral infarction models, 300 μG/150 μL of MHP1 administration solution was administered through the cervical vein. Thereafter, 336 μg was continuously administered by subcutaneous injection using an Alzet pump for 21 hours. Forty-eight hours after the production of the cerebral infarction models, the radius distal portion of the left hand (paralyzed side) was stained with TRAP, and the ratio of the stained region (osteoclast surface) relative to the bone surface was calculated based on the obtained staining images.

## LMVYVVKTSIKIPSSHNLMKGGSTKNWSGN (listed as Mus musculus) [MHP1]
MG6 cells
  M1 shift caused by LPS: suppressed
NFκB (p65)
  NFκB (p65) activation: slightly activated
[1]; pretreatment (A group), MHP1 1, 10, 30 or 50 μg/ml 24 hours before LPS 10 μg/ml, FIG. 5
  increase in the amount of TNFα secretion by LPS: suppressed
[1]; simultaneous treatment (C group), MHP1 30 or 50 μg/ml with LPS 10 μg/ml, 24 hours, FIG. 7
  increase in the amount of TNFα secretion by LPS: suppressed
[2]; 0.625 μg/2 μl into the ventricle 4 hours after ischemia, brain at 72 hours, FIG. 15
  necrosis occurring after cerebral ischemia (ratio of cerebral infarct area): could be inhibited
[2]; cerebral infarction hemisphere, 0.7 mm from the bregma, FIG. 16
  expression of activated macrophage/microglia (F4/80-positive cells): suppressed
[2]; one MHP1 administration vs edaravone 3 mg/kg i.p. every 12 hours, FIG. 15
  degree of inhibition of necrosis compared with edaravone administration: higher than edaravone administration
[3]
  increase in the number of TRAP-positive osteoclasts on the bone ridge due to cerebral infarction: suppressed

Reference: patent US10517926B2, “Oligopeptide having proinflammatory cytokine secretion-inhibiting activity” (Osaka University, priority 2015, dated 2019)
